# Experimental data as given in US11111218B2, “Crystalline form of 5-amino-2,3-dihydrophthalazine-1,4-dione” (METRIOPHARM AG, priority 2016, dated 2021).
# Conditions: TG-DSC
# Description: Upper trace: Mass loss determined by TG. Lower trace: Heat flow determined by DSC
structure (smiles),measurement,setting,value
"Nc1cccc2c(=O)[nH][nH]c(=O)c12 [Form II, 5-amino-2,3-dihydrophthalazine-1,4-dione]",thermal stability up to,crystalline solid,up to 320±1 °C
same,solid state transformation to other forms,until thermal degradation of the crystalline compound sets in,no solid state transformation to other forms is observed
